One assay concerns Escherichia coli. Description: Antibacterial activity against Escherichia coli ATCC25922 assessed as prevention of visible growth by broth microdilution method. Format: functional. For orientation: In broth dilution the organism is exposed to a series of concentrations in liquid medium.
The species entered for another assay is Homo sapiens. Kind of assay: Inhibition of human ProRS expressed in Escherichia coli assessed as change in melting temperature in presence of AMPPNP at 0.5 mM by fluorescence-based thermal shift assay.
Assay [1] deals with Staphylococcus aureus. Description: Antibacterial activity against methicillin-resistant Staphylococcus aureus 252 assessed as prevention of visible growth by broth microdilution method. Format: functional.
The subject of assay [2] is Staphylococcus aureus. Kind of assay: Inhibition of methicillin-resistant Staphylococcus aureus ProRS expressed in Escherichia coli assessed as change in melting temperature in presence of AMPPNP at 0.5 mM by fluorescence-based thermal shift assay.
A further assay deals with Salmonella typhi. Kind of assay: Antibacterial activity against Salmonella typhi CMCC50094 assessed as prevention of visible growth by broth microdilution method. Format: functional, Salmonella enterica subsp. enterica serovar Typhi. Conditions: Salmonella enterica.
The test system of a further assay is Shigella flexneri. Description: Antibacterial activity against Shigella flexneri CMCC51572 assessed as prevention of visible growth by broth microdilution method. Format: functional.
Assay [3] is described as follows: Inhibition of methicillin-resistant Staphylococcus aureus ProRS expressed in Escherichia coli assessed as generation of inorganic monophosphate by pre-transfer editing-based experiment.
Assay [4] relates to Staphylococcus aureus. Description: Antibacterial activity against Staphylococcus aureus ATCC25923 assessed as prevention of visible growth by broth microdilution method. Format: functional.
Assay [5] deals with Staphylococcus aureus. Description: Antibacterial activity against methicillin-resistant Staphylococcus aureus R3708 assessed as prevention of visible growth by broth microdilution method. Format: functional.
The subject of assay [6] is Staphylococcus aureus. Description: Antibacterial activity against Staphylococcus aureus ATCC29213 assessed as prevention of visible growth by broth microdilution method. Format: functional.
Assay [7] deals with Staphylococcus aureus. Description: Bactericidal activity against methicillin-resistant Staphylococcus aureus 252 assessed as bacterial killing measured after 24 hrs incubation by CLSI method. Format: functional. Conditions: read-out: MBC99.9.
In assay [8] the test system is Staphylococcus aureus. Description: Ratio of MBC99.9 for methicillin-resistant Staphylococcus aureus 252 to MIC for methicillin-resistant Staphylococcus aureus 252. Format: functional.

In brackets after ≈: the same amount, converted by molar mass.

From ChEMBL document CHEMBL5150045, “Structure-Guided Design of Halofuginone Derivatives as ATP-Aided Inhibitors Against Bacterial Prolyl-tRNA Synthetase” (J Med Chem, 2022) come the findings set out here.

Turning to `O=C(C[C@@H]1CCCCN1)Cn1cnc2cc(F)ccc2c1=O`, the minimum inhibitory concentration (MIC) in the assay with Escherichia coli stood at 16 µg/mL (≈ 52.7 µM); in the assay with Staphylococcus aureus [1], 32 µg/mL (≈ 105 µM); in the assay with Salmonella typhi, 32 µg/mL (≈ 105 µM); in the assay with Shigella flexneri, 8 µg/mL (≈ 26.4 µM); in the assay with Staphylococcus aureus [4], 32 µg/mL (≈ 105 µM); in the assay on Staphylococcus aureus [5], 32 µg/mL (≈ 105 µM). In addition, in the assay with Staphylococcus aureus [6], the MIC stood at 32 µg/mL (≈ 105 µM). For the same compound, the ΔTm was 18.1 °C in the assay listed under Homo sapiens and 6.9 °C in the assay on Staphylococcus aureus [2]. Also, the half-inhibitory concentration (IC50) in assay [3] turned out to be 1.71 µM.
For the compound `O=C(C[C@@H]1CCCCN1)Cn1cnc2cccnc2c1=O`, the minimum inhibitory concentration (MIC) with Escherichia coli, with Staphylococcus aureus [1], with Salmonella typhi, in the assay on Shigella flexneri, in the assay on Staphylococcus aureus [4] and in the assay on Staphylococcus aureus [5] was more than 64 µg/mL each time. Moreover, the MIC in the assay on Staphylococcus aureus [6] was more than 64 µg/mL. Further, the ΔTm amounted to 6.9 °C in the assay filed under Homo sapiens and 0 °C in the assay with Staphylococcus aureus [2]. Further, the IC50 in assay [3] is more than 100 µM.
With `CC1(C)S[C@@H]2[C@H](NC(=O)[C@H](N)c3ccccc3)C(=O)N2[C@H]1C(=O)O` [AMPICILLIN], the MIC in the assay on Salmonella typhi and in the assay on Shigella flexneri was 2 µg/mL (≈ 5.72 µM) throughout.
`O=c1c2cc(Cl)c(Br)cc2ncn1CCC[C@@H]1CCCCN1`: the MIC with Escherichia coli, in the assay on Staphylococcus aureus [1], in the assay with Salmonella typhi, in the assay on Shigella flexneri, with Staphylococcus aureus [4] and with Staphylococcus aureus [5] was 64 µg/mL (≈ 166 µM) throughout. Further, the MIC in the assay with Staphylococcus aureus [6] was determined as 32 µg/mL (≈ 83.2 µM). In addition, the shift in melting temperature (ΔTm) worked out at 15.1 °C in the assay filed under Homo sapiens and 2.5 °C in the assay on Staphylococcus aureus [2]. Besides, in assay [3], the 50% inhibitory concentration (IC50) is 12.4 µM.
In the case of `O=C(C[C@@H]1CCCCN1)Cn1cnc2ccccc2c1=O`, the MIC in the assay on Escherichia coli came to 64 µg/mL (≈ 224 µM); with Staphylococcus aureus [1], 16 µg/mL (≈ 56.1 µM); in the assay on Salmonella typhi it was 64 µg/mL (≈ 224 µM); with Shigella flexneri it was 32 µg/mL (≈ 112 µM); in the assay with Staphylococcus aureus [4] it was 32 µg/mL (≈ 112 µM); in the assay on Staphylococcus aureus [5], 32 µg/mL (≈ 112 µM). Besides, the minimal inhibitory concentration (MIC) in the assay on Staphylococcus aureus [6] is 32 µg/mL (≈ 112 µM). For the same compound, the ΔTm is 15.7 °C in the assay filed under Homo sapiens and 1.3 °C with Staphylococcus aureus [2]. For the same compound, the half-inhibitory concentration (IC50) in assay [3] worked out at 18.3 µM.
With `O=C(C[C@@H]1CCCCN1)Cn1cnc2cc(Cl)c(Cl)cc2c1=O`, the MIC in the assay on Escherichia coli is 16 µg/mL (≈ 45.2 µM); with Staphylococcus aureus [1] it was 4 µg/mL (≈ 11.3 µM); in the assay on Salmonella typhi, 32 µg/mL (≈ 90.3 µM); in the assay with Shigella flexneri, 16 µg/mL (≈ 45.2 µM); in the assay on Staphylococcus aureus [4] it was 16 µg/mL (≈ 45.2 µM); in the assay on Staphylococcus aureus [5], 4 µg/mL (≈ 11.3 µM). Moreover, in the assay on Staphylococcus aureus [6], the MIC was 8 µg/mL (≈ 22.6 µM). Also, the shift in melting temperature (ΔTm) was found to be 18.9 °C in the assay filed under Homo sapiens and 7.9 °C in the assay with Staphylococcus aureus [2]. Further, in the assay on Staphylococcus aureus [7], the MBC was 64 µg/mL (≈ 181 µM). The concentration for half-maximal inhibition (IC50) in [3] amounted to 0.51 µM. For the same compound, in the assay on Staphylococcus aureus [8], the Ratio was 16.
With `COc1cc2ncn(CC(=O)C[C@@H]3CCCCN3)c(=O)c2cc1OC`, the MIC with Escherichia coli, in the assay on Staphylococcus aureus [1], in the assay on Salmonella typhi, in the assay on Shigella flexneri, in the assay with Staphylococcus aureus [4] and with Staphylococcus aureus [5] was more than 64 µg/mL throughout. Also, the MIC in the assay with Staphylococcus aureus [6] is more than 64 µg/mL. In addition, the ΔTm in the assay filed under Homo sapiens is 4.2 °C; with Staphylococcus aureus [2], 0 °C. For the same compound, the IC50 in [3] is more than 100 µM.
For `O=C(C[C@@H]1CCCCN1)Cn1cnc2ccc(C(F)(F)F)cc2c1=O`, the minimal inhibitory concentration (MIC) in the assay with Escherichia coli, in the assay on Staphylococcus aureus [1], in the assay on Salmonella typhi, with Shigella flexneri, with Staphylococcus aureus [4] and in the assay with Staphylococcus aureus [5] was 64 µg/mL (≈ 181 µM) throughout. For the same compound, the minimal inhibitory concentration (MIC) with Staphylococcus aureus [6] came to 32 µg/mL (≈ 90.6 µM). Also, the ΔTm was determined as 9.9 °C in the assay listed under Homo sapiens and 1.2 °C with Staphylococcus aureus [2]. For the same compound, the IC50 in assay [3] was more than 100 µM.
Regarding `O=c1c2cc(Cl)c(Cl)cc2ncn1CCC[C@@H]1CCCCN1`, the minimum inhibitory concentration (MIC) in the assay with Escherichia coli, in the assay on Staphylococcus aureus [1], with Salmonella typhi, in the assay with Shigella flexneri, in the assay with Staphylococcus aureus [4] and in the assay on Staphylococcus aureus [5] was more than 64 µg/mL in each case. Also, the minimal inhibitory concentration (MIC) with Staphylococcus aureus [6] was more than 64 µg/mL. Also, the ΔTm in the assay filed under Homo sapiens worked out at 12.4 °C; in the assay on Staphylococcus aureus [2] it was 2 °C. In addition, the IC50 in [3] was found to be 6.8 µM.
`O=C(C[C@@H]1CCCCN1)Cn1cnc2cccc(Cl)c2c1=O`: the minimal inhibitory concentration (MIC) in the assay on Escherichia coli, with Staphylococcus aureus [1], with Salmonella typhi, with Shigella flexneri, in the assay on Staphylococcus aureus [4] and with Staphylococcus aureus [5] was more than 64 µg/mL each time. The minimal inhibitory concentration (MIC) in the assay with Staphylococcus aureus [6] was more than 64 µg/mL. Moreover, the ΔTm in the assay filed under Homo sapiens turned out to be 15.9 °C; in the assay on Staphylococcus aureus [2] it was 3 °C. Also, in assay [3], the IC50 was found to be 5.59 µM.
Take `O=C(C[C@@H]1CCCCN1)Cn1cnc2cc(C(F)(F)F)ccc2c1=O`: the MIC in the assay on Escherichia coli, in the assay on Staphylococcus aureus [1], in the assay on Salmonella typhi, in the assay with Shigella flexneri, in the assay with Staphylococcus aureus [4] and with Staphylococcus aureus [5] was more than 64 µg/mL in each case. For the same compound, the minimal inhibitory concentration (MIC) with Staphylococcus aureus [6] is more than 64 µg/mL. Besides, the values for the ΔTm in the assay listed under Homo sapiens and in the assay with Staphylococcus aureus [2] were 16.9 °C and 3.4 °C, respectively. Further, in [3], the concentration for half-maximal inhibition (IC50) was 1.28 µM.

One may read the MIC as the smallest concentration in the dilution series that meets the test's criterion for growth inhibition. The ΔTm is the shift of the melting midpoint relative to a reference. The term IC50 denotes the concentration that gives 50% inhibition.
